Drawing on ChEMBL document CHEMBL5505956, “Plant-derived strategies to fight against severe acute respiratory syndrome coronavirus 2” (Eur J Med Chem, 2024), this text covers EC50 and IC50 for eight compounds.

For assay [1], the system named is SARS-CoV-2. Description: Antiviral activity against SARS-CoV-2 infected in African green monkey Vero E6 cells assessed as inhibition of viral growth incubated for 24 hrs by qRT-PCR analysis. Format: functional, organism-based. The conditions noted are these: Severe acute respiratory syndrome coronavirus 2, Vero C1008, 24 h.
Assay [2] deals with Replicase polyprotein 1ab (Severe acute respiratory syndrome coronavirus 2, UniProt P0DTD1).
Description: Inhibition of SARS CoV-2 main protease
The test system of assay [3] is SARS-CoV-2. In words: Antiviral activity against SARS-CoV-2 infected in african green monkey Vero E6 cells assessed as reduction in viral replication. Type of assay: functional, organism-based. The settings on record: Severe acute respiratory syndrome coronavirus 2, Vero C1008.
The test system of assay [4] is SARS-CoV-2. Description: Antiviral activity against SARS-CoV-2 infected in human Calu-3 cells assessed as reduction in viral replication incubated for 48 hrs by RT-PCR. Type of assay: functional, organism-based. The settings on record: Severe acute respiratory syndrome coronavirus 2, Calu-3, 48 h.
For assay [5], the system named is SARS-CoV-2. In words: Antiviral activity against SARS-CoV-2 infected in african green monkey Vero E6 cells assessed as reduction in viral growth measured for 2 days by qRT-PCR. Format: functional, organism-based. The settings on record: Severe acute respiratory syndrome coronavirus 2, Vero C1008, 48 h.
Assay [6] has as its system SARS-CoV-2. In words: Antiviral activity against SARS-CoV-2 infected in African green monkey Vero E6 cells assessed as reduction in viral replication measured after 3 days by qRT-PCR analysis. The conditions noted are these: Severe acute respiratory syndrome coronavirus 2, Vero C1008, 72 h. Type of assay: functional, organism-based. Background: In qPCR the cycle at which signal appears reflects the starting amount.

The test system of assay [7] is SARS-CoV-2. In words: Antiviral activity against SARS-CoV-2 infected in human A549-ACE2 cells assessed as viral growth inhibition. The conditions noted are these: Severe acute respiratory syndrome coronavirus 2, A549-ACE2. Format: functional, organism-based.
For assay [8], the system named is SARS-CoV-2. Description: Antiviral activity against SARS-CoV-2 infected in monkey Vero E6 cells assessed as inhibition of […]. Type of assay: functional, organism-based. The settings on record: Severe acute respiratory syndrome coronavirus 2, Vero C1008.

SMILES strings stand for the structures. ≈ marks a conversion by molar mass, not a printed value.

For orientation: EC50 means the midpoint of the concentration-response curve. Take `C[C@@H]1CC[C@H]2[C@@H](C)C(=O)O[C@@H]3O[C@@]4(C)CC[C@@H]1[C@]32OO4` [ARTEMISININ]: the 50% effective concentration (EC50) with SARS-CoV-2 [1] was 10.3 µM. As usually defined, the IC50 is the concentration needed to halve the response being measured. The compound `COc1ccc2cc1Oc1ccc(cc1)C[C@H]1c3c(cc4c(c3Oc3cc5c(cc3OC)CCN(C)[C@@H]5C2)OCO4)CCN1C` [CEPHARANTHINE] had an IC50 in assay [2] of 0.1 µM. As to `O=C(O[C@@H]1O[C@@H]2COC(=O)c3cc(O)c(O)c(O)c3-c3c(cc(O)c(O)c3O)C(=O)O[C@H]([C@H]1O)[C@@H]2O)c1cc(O)c(O)c(O)c1` [CORILAGIN], the EC50 in the assay on SARS-CoV-2 [3] was found to be 0.13 µM.

Consider `COc1cc(/C=C/C(=O)CC(=O)/C=C/c2ccc(O)c(OC)c2)ccc1O` [CURCUMIN], for which the EC50 in the assay on SARS-CoV-2 [4] and in the assay on SARS-CoV-2 [5] was 38 µM throughout. On to `O=C(O[C@@H]1Cc2c(O)cc(O)cc2O[C@@H]1c1cc(O)c(O)c(O)c1)c1cc(O)c(O)c(O)c1` [EPIGALOCATECHIN GALLATE], for which, in the assay on SARS-CoV-2 [6], the concentration for a half-maximal effect (EC50) came to 10 µM. For the compound `CC1(C)[C@@H](O[C@H]2O[C@H](C(=O)O)[C@@H](O)[C@H](O)[C@H]2O[C@@H]2O[C@H](C(=O)O)[C@@H](O)[C@H](O)[C@H]2O)CC[C@]2(C)[C@H]3C(=O)C=C4[C@@H]5C[C@@](C)(C(=O)O)CC[C@]5(C)CC[C@@]4(C)[C@]3(C)CC[C@@H]12` [GLYCYRRHIZIN], in the assay on SARS-CoV-2 [7], the concentration giving a half-maximal response (EC50) came out at 0.44 µg/mL (≈ 0.535 µM). As to `O=c1c(O)c(-c2cc(O)c(O)c(O)c2)oc2cc(O)cc(O)c12` [MYRICETIN], the EC50 in the assay on SARS-CoV-2 [8] turned out to be 8 µM.

Regarding `Cc1ccc(C(=O)Nc2ccc(S(=O)(=O)O)c3cc(S(=O)(=O)O)cc(S(=O)(=O)O)c23)cc1NC(=O)c1cccc(NC(=O)Nc2cccc(C(=O)Nc3cc(C(=O)Nc4ccc(S(=O)(=O)O)c5cc(S(=O)(=O)O)cc(S(=O)(=O)O)c45)ccc3C)c2)c1` [SURAMIN], in the assay with SARS-CoV-2 [3], the EC50 was found to be 2.93 µM.
